According to paper PMC5218480 (PLoS ONE, 2017):

System: MV-4-11 cells
Assay: Gene expression microarray analysis (Affymetrix PrimeView) and GSEA
Type: cell-based, human
Set-up: RFU PODN (11730768_x_at) / Fold change /veh PODN (11730768_x_at) / RFU LINC00158 (11744669_a_at) / Fold change /veh LINC00158 (11744669_a_at) / RFU DUSP10 (11751237_a_at) / Fold change /veh DUSP10 (11751237_a_at) / RFU ID3 (11757404_x_at) / Fold change /veh ID3 (11757404_x_at) / RFU PLEKHG5 (11737974_s_at) / Fold change /veh PLEKHG5 (11737974_s_at) / RFU LRRC4B (11730491_at) / Fold change /veh LRRC4B (11730491_at) / RFU GIMAP4 (11747438_a_at) / Fold change /veh GIMAP4 (11747438_a_at) / RFU KRT8 (11758183_x_at) / Fold change /veh KRT8 (11758183_x_at) / RFU CNN1 (11734310_a_at) / Fold change /veh CNN1 (11734310_a_at) / RFU VPS37D (11726825_at) / Fold change /veh VPS37D (11726825_at) / RFU C10orf10 (11716522_x_at) / Fold change /veh C10orf10 (11716522_x_at) / RFU KIR2DL2 /// KIR2DL4 /// KIR2DL5A /// KIR2DL5B /// KIR2DS1 /// KIR2DS2 /// KIR2DS3 /// KIR2DS4 /// KIR3DL3 /// KIR3DL3 /// KIR3DS1 (11738374_at) / Fold change /veh KIR2DL2 /// KIR2DL4 /// KIR2DL5A /// KIR2DL5B /// KIR2DS1 /// KIR2DS2 /// KIR2DS3 /// KIR2DS4 /// KIR3DL3 /// KIR3DL3 /// KIR3DS1 (11738374_at) / RFU C1QL1 (11718748_at) / Fold change /veh C1QL1 (11718748_at) / RFU TMPRSS4 (11747572_a_at) / Fold change /veh TMPRSS4 (11747572_a_at) / RFU HAMP (11756126_x_at) / Fold change /veh HAMP (11756126_x_at) / RFU RNFT2 (11725882_a_at) / Fold change /veh RNFT2 (11725882_a_at) / RFU NR4A2 (11747474_a_at) / Fold change /veh NR4A2 (11747474_a_at) / RFU ABCC12 (11746883_a_at) / Fold change /veh ABCC12 (11746883_a_at) / RFU TMEM136 (11760407_x_at) / Fold change /veh TMEM136 (11760407_x_at) / RFU CLDN22 /// WWC2 (11732394_at) / Fold change /veh CLDN22 /// WWC2 (11732394_at) / RFU HLA-DPB1 (11760878_x_at) / Fold change /veh HLA-DPB1 (11760878_x_at) / RFU SPINT1 (11716480_a_at) / Fold change /veh SPINT1 (11716480_a_at) / RFU GAP43 (11754022_s_at) / Fold change /veh GAP43 (11754022_s_at) / RFU A4GNT (11735810_at) / Fold change /veh A4GNT (11735810_at) / RFU PRB3 (11715151_x_at) / Fold change /veh PRB3 (11715151_x_at) / RFU TUBB4B (11761932_at) / Fold change /veh TUBB4B (11761932_at) / RFU CAPN14 (11732068_a_at) / Fold change /veh CAPN14 (11732068_a_at) / RFU TMCC2 (11721928_a_at) / Fold change /veh TMCC2 (11721928_a_at) / RFU IRGQ (11745062_a_at) / Fold change /veh IRGQ (11745062_a_at) / RFU FAM174B (11720279_a_at) / Fold change /veh FAM174B (11720279_a_at) / RFU TMPRSS4 (11748680_a_at) / Fold change /veh TMPRSS4 (11748680_a_at) / RFU FAM212B (11763350_a_at) / Fold change /veh FAM212B (11763350_a_at) / RFU PLEKHG5 (11743358_a_at) / Fold change /veh PLEKHG5 (11743358_a_at) / RFU ZSCAN30 (11745921_a_at) / Fold change /veh ZSCAN30 (11745921_a_at) / RFU CMKLR1 (11741424_a_at) / Fold change /veh CMKLR1 (11741424_a_at) / RFU LOC101060620 /// MAPK8IP1 (11723275_at) / Fold change /veh LOC101060620 /// MAPK8IP1 (11723275_at) / RFU SPTSSB (11747773_x_at) / Fold change /veh SPTSSB (11747773_x_at) / RFU PRSS12 (11739890_at) / Fold change /veh PRSS12 (11739890_at) / RFU BIN1 (11741810_x_at) / Fold change /veh BIN1 (11741810_x_at) / RFU WNT11 (11732464_a_at) / Fold change /veh WNT11 (11732464_a_at) / RFU C10orf10 (11716521_a_at) / Fold change /veh C10orf10 (11716521_a_at) / RFU C5orf56 (11738089_at) / Fold change /veh C5orf56 (11738089_at) / RFU CYB561 (11721691_x_at) / Fold change /veh CYB561 (11721691_x_at) / RFU ANKRD19P (11752326_a_at) / Fold change /veh ANKRD19P (11752326_a_at) / RFU OR2T12 /// OR2T33 /// OR2T8 (11738714_s_at) / Fold change /veh OR2T12 /// OR2T33 /// OR2T8 (11738714_s_at) / RFU VCAN (11748164_a_at) / Fold change /veh VCAN (11748164_a_at) / RFU JSRP1 (11732532_at) / Fold change /veh JSRP1 (11732532_at) / RFU KRTAP10-11 (11738290_x_at) / Fold change /veh KRTAP10-11 (11738290_x_at) / RFU MYO3A (11730013_a_at) / Fold change /veh MYO3A (11730013_a_at) / RFU EBF3 (11725865_a_at) / Fold change /veh EBF3 (11725865_a_at) / RFU CAMK2N1 (11719241_x_at) / Fold change /veh CAMK2N1 (11719241_x_at) / RFU C5orf56 (11738088_a_at) / Fold change /veh C5orf56 (11738088_a_at) / RFU OLFML3 (11715873_a_at) / Fold change /veh OLFML3 (11715873_a_at) / RFU LOC100653217 /// NTM (11731650_a_at) / Fold change /veh LOC100653217 /// NTM (11731650_a_at) / RFU MAPK11 (11762145_a_at) / Fold change /veh MAPK11 (11762145_a_at) / RFU FIZ1 (11724087_x_at) / Fold change /veh FIZ1 (11724087_x_at) / RFU OASL (11726364_x_at) / Fold change /veh OASL (11726364_x_at) / RFU SOX15 (11748057_x_at) / Fold change /veh SOX15 (11748057_x_at) / RFU CD79A (11719716_a_at) / Fold change /veh CD79A (11719716_a_at) / RFU HIST1H1D (11736915_at) / Fold change /veh HIST1H1D (11736915_at) / RFU CASKIN2 (11723855_a_at) / Fold change /veh CASKIN2 (11723855_a_at) / RFU LOC730098 (11760151_x_at) / Fold change /veh LOC730098 (11760151_x_at) / RFU OR4N2 (11742367_at) / Fold change /veh OR4N2 (11742367_at) / RFU PRRT2 (11749266_a_at) / Fold change /veh PRRT2 (11749266_a_at) / RFU SNX32 (11753110_a_at) / Fold change /veh SNX32 (11753110_a_at) / RFU CDHR5 (11726645_a_at) / Fold change /veh CDHR5 (11726645_a_at) / RFU RCAN1 (11760418_a_at) / Fold change /veh RCAN1 (11760418_a_at) / RFU FAM167A (11723789_a_at) / Fold change /veh FAM167A (11723789_a_at) / RFU FAM26E (11764081_at) / Fold change /veh FAM26E (11764081_at) / RFU ISYNA1 (11749810_s_at) / Fold change /veh ISYNA1 (11749810_s_at) / RFU ACY1 (11761880_at) / Fold change /veh ACY1 (11761880_at) / RFU 11764098_at / Fold change /veh 11764098_at / RFU SAMD14 (11745864_x_at) / Fold change /veh SAMD14 (11745864_x_at) / RFU NPB (11741838_a_at) / Fold change /veh NPB (11741838_a_at) / RFU TMPRSS6 (11731388_a_at) / Fold change /veh TMPRSS6 (11731388_a_at) / RFU KRTAP10-2 (11738614_at) / Fold change /veh KRTAP10-2 (11738614_at) / RFU ARHGAP8 /// PRR5-ARHGAP8 (11727945_x_at) / Fold change /veh ARHGAP8 /// PRR5-ARHGAP8 (11727945_x_at) / RFU KRTAP5-7 /// NADSYN1 (11734609_at) / Fold change /veh KRTAP5-7 /// NADSYN1 (11734609_at) / RFU RASL12 (11751679_a_at) / Fold change /veh RASL12 (11751679_a_at) / RFU CDKN2B (11736163_a_at) / Fold change /veh CDKN2B (11736163_a_at) / RFU PRF1 (11729649_at) / Fold change /veh PRF1 (11729649_at) / RFU, ZNF638 /// ZNF638-IT1 / Fold change vs veh, ZNF638 /// ZNF638-IT1 / RFU, PANK3 / Fold change vs veh, PANK3 / RFU, SH3YL1 / Fold change vs veh, SH3YL1 / RFU, ZEB2 / Fold change vs veh, ZEB2 / RFU, NRIP1 / Fold change vs veh, NRIP1 / RFU, PTTG1IP / Fold change vs veh, PTTG1IP / RFU, CAPN2 / Fold change vs veh, CAPN2 / RFU, MED14 / Fold change vs veh, MED14 / RFU, SNORA58 / Fold change vs veh, SNORA58 / RFU, C1orf63 / Fold change vs veh, C1orf63 / RFU, LRRFIP1 / Fold change vs veh, LRRFIP1 / RFU, NDUFAF7 / Fold change vs veh, NDUFAF7 / RFU, SLC12A2 / Fold change vs veh, SLC12A2 / RFU, IBTK / Fold change vs veh, IBTK / RFU, ESF1 / Fold change vs veh, ESF1 / Fold change vs veh, TMEM50B / RFU, TAOK1 / Fold change vs veh, TAOK1 / RFU, ACBD3 / Fold change vs veh, ACBD3 / RFU, TMA16 / Fold change vs veh, TMA16 / RFU, RWDD3 / Fold change vs veh, RWDD3 / RFU, BCAT1 / Fold change vs veh, BCAT1 / RFU, EDEM3 / Fold change vs veh, EDEM3 / RFU, TMEM33 / Fold change vs veh, TMEM33 / RFU, WDR75 / Fold change vs veh, WDR75 / RFU, AHCTF1 / Fold change vs veh, AHCTF1 / RFU, TFRC / Fold change vs veh, TFRC / RFU, ZDHHC17 / Fold change vs veh, ZDHHC17 / RFU, NOM1 / Fold change vs veh, NOM1 / RFU, ARL8B / Fold change vs veh, ARL8B / RFU, ZBTB11 / Fold change vs veh, ZBTB11 / RFU, TAMM41 / Fold change vs veh, TAMM41 / RFU, KIAA1704 /// LOC100996395 / Fold change vs veh, KIAA1704 /// LOC100996395 / RFU, ING1 / Fold change vs veh, ING1 / RFU, TRMT61B / Fold change vs veh, TRMT61B / RFU, FUBP3 / Fold change vs veh, FUBP3 / RFU, TP53 / Fold change vs veh, TP53 / RFU, TNKS2 / Fold change vs veh, TNKS2 / RFU, ZFP14 / Fold change vs veh, ZFP14 / RFU, ACTR2 / Fold change vs veh, ACTR2 / RFU, PPP3R1 / Fold change vs veh, PPP3R1 / RFU, PIK3R1 / Fold change vs veh, PIK3R1 / RFU, HNRNPA1 / Fold change vs veh, HNRNPA1 / RFU, RNF170 / Fold change vs veh, RNF170 / RFU, ZNF28 / Fold change vs veh, ZNF28 / RFU, RNGTT / Fold change vs veh, RNGTT / RFU, OGT / Fold change vs veh, OGT / RFU, BRD1 / Fold change vs veh, BRD1 / RFU, MARS / Fold change vs veh, MARS / RFU, ZNF655 / Fold change vs veh, ZNF655 / RFU, FAHD1 / Fold change vs veh, FAHD1 / RFU, BDP1 / Fold change vs veh, BDP1 / RFU, LRRCC1 / Fold change vs veh, LRRCC1 / RFU, ARID1A / Fold change vs veh, ARID1A / RFU, ZNF146 / Fold change vs veh, ZNF146 / RFU, ZNF330 / Fold change vs veh, ZNF330 / RFU, GPN3 / Fold change vs veh, GPN3 / RFU, C9orf123 / Fold change vs veh, C9orf123 / RFU, N4BP2L2 / Fold change vs veh, N4BP2L2 / RFU, ARFIP1 / Fold change vs veh, ARFIP1 / RFU, FAM179B / Fold change vs veh, FAM179B / RFU, BCL10 / Fold change vs veh, BCL10 / RFU, UHRF1BP1L / Fold change vs veh, UHRF1BP1L / RFU, BET1 / Fold change vs veh, BET1 / RFU, CNOT2 / Fold change vs veh, CNOT2 / RFU, ZNF268 / Fold change vs veh, ZNF268 / Fold change vs veh, ZNF507 / RFU, DGCR2 / Fold change vs veh, DGCR2 / RFU, WDSUB1 / Fold change vs veh, WDSUB1 / Fold change vs veh, HSP90B1 /// MIR3652 / RFU, ADSS / Fold change vs veh, ADSS / RFU, GK / Fold change vs veh, GK / RFU, ZNF148 / Fold change vs veh, ZNF148 / RFU, TAF9 / Fold change vs veh, TAF9 / RFU, SLC1A5 / Fold change vs veh, SLC1A5 / RFU, SLMO2 / Fold change vs veh, SLMO2 / RFU, ABCC4 / Fold change vs veh, ABCC4 / RFU, LOC101060439 /// RAP1B / Fold change vs veh, LOC101060439 /// RAP1B / RFU, RFX7 / Fold change vs veh, RFX7 / RFU, GTPBP10 / Fold change vs veh, GTPBP10 / RFU, CNEP1R1 / Fold change vs veh, CNEP1R1 / RFU, BIVM-ERCC5 /// ERCC5 / Fold change vs veh, BIVM-ERCC5 /// ERCC5 / RFU, ILF3 / Fold change vs veh, ILF3 / RFU 11762660_at / Fold change /veh 11762660_at / RFU VCAN (11757783_s_at) / Fold change /veh VCAN (11757783_s_at) / RFU DDX43 (11728927_at) / Fold change /veh DDX43 (11728927_at) / RFU KRT8 (11758188_x_at) / Fold change /veh KRT8 (11758188_x_at) / RFU NKD1 (11759106_at) / Fold change /veh NKD1 (11759106_at) / RFU SRD5A1 (11742802_a_at) / Fold change /veh SRD5A1 (11742802_a_at) / RFU TPSAB1 /// TPSB2 (11721975_s_at) / Fold change /veh TPSAB1 /// TPSB2 (11721975_s_at) / RFU GSTM3 (11746129_a_at) / Fold change /veh GSTM3 (11746129_a_at) / RFU IL23R (11737362_x_at) / Fold change /veh IL23R (11737362_x_at) / RFU TMEM51 (11727254_a_at) / Fold change /veh TMEM51 (11727254_a_at) / RFU PIWIL2 (11732686_x_at) / Fold change /veh PIWIL2 (11732686_x_at) / RFU ORM1 (11744905_x_at) / Fold change /veh ORM1 (11744905_x_at) / RFU CCDC152 (11743942_at) / Fold change /veh CCDC152 (11743942_at) / RFU ECM1 (11717891_a_at) / Fold change /veh ECM1 (11717891_a_at) / RFU IL23R (11748794_a_at) / Fold change /veh IL23R (11748794_a_at) / RFU TNFAIP8L3 (11732012_x_at) / Fold change /veh TNFAIP8L3 (11732012_x_at) / RFU MBOAT4 (11741988_at) / Fold change /veh MBOAT4 (11741988_at) / RFU 11764193_at / Fold change /veh 11764193_at / RFU TMEM53 (11763286_at) / Fold change /veh TMEM53 (11763286_at) / RFU MAGEB2 (11727129_at) / Fold change /veh MAGEB2 (11727129_at) / RFU TMEM200A (11744735_a_at) / Fold change /veh TMEM200A (11744735_a_at) / RFU CCDC152 (11751479_a_at) / Fold change /veh CCDC152 (11751479_a_at) / RFU FAM211A (11726209_a_at) / Fold change /veh FAM211A (11726209_a_at) / RFU RGS16 (11746705_a_at) / Fold change /veh RGS16 (11746705_a_at) / RFU VCAN (11755009_s_at) / Fold change /veh VCAN (11755009_s_at) / RFU RHOB (11743442_s_at) / Fold change /veh RHOB (11743442_s_at) / RFU RGS16 (11720943_a_at) / Fold change /veh RGS16 (11720943_a_at) / RFU RGS16 (11720944_at) / Fold change /veh RGS16 (11720944_at) / RFU, VPS4B / Fold change vs veh, VPS4B / RFU, CREB1 / Fold change vs veh, CREB1 / RFU, DNAJC13 / Fold change vs veh, DNAJC13 / RFU, GNAQ / Fold change vs veh, GNAQ / RFU, CDK5R1 / Fold change vs veh, CDK5R1 / RFU, ZRANB3 / Fold change vs veh, ZRANB3 / RFU, CUL4A / Fold change vs veh, CUL4A / RFU, CCNY / Fold change vs veh, CCNY / RFU, UFL1 / Fold change vs veh, UFL1 / RFU, COG3 / Fold change vs veh, COG3 / RFU, DIAPH2 / Fold change vs veh, DIAPH2 / RFU, SKA2 / Fold change vs veh, SKA2 / RFU, AFF3 / Fold change vs veh, AFF3 / RFU, LMF1 / Fold change vs veh, LMF1 / RFU, IPO11 / Fold change vs veh, IPO11 / RFU, DFFB / Fold change vs veh, DFFB / RFU, FOXP1 / Fold change vs veh, FOXP1 / RFU, CARD8 / Fold change vs veh, CARD8 / RFU, STRN3 / Fold change vs veh, STRN3 / RFU, ADK / Fold change vs veh, ADK / RFU, RASSF2 / Fold change vs veh, RASSF2 / RFU, WIPF1 / Fold change vs veh, WIPF1 / RFU, LARP1B / Fold change vs veh, LARP1B / RFU, RASA1 / Fold change vs veh, RASA1 / RFU, RB1 / Fold change vs veh, RB1 / RFU, PPFIA1 / Fold change vs veh, PPFIA1 / RFU, MAT2A / Fold change vs veh, MAT2A / RFU, CCT5 / Fold change vs veh, CCT5 / RFU, WDR92 / Fold change vs veh, WDR92 / RFU, CUX1 / Fold change vs veh, CUX1 / RFU, TTC7A / Fold change vs veh, TTC7A / RFU, TMEM135 / Fold change vs veh, TMEM135 / RFU, DEPTOR / Fold change vs veh, DEPTOR / RFU, CPM / Fold change vs veh, CPM / RFU, DNAJB6 / Fold change vs veh, DNAJB6 / RFU, CACNA2D3 / Fold change vs veh, CACNA2D3 / RFU, DTX4 / Fold change vs veh, DTX4 / RFU, TFCP2 / Fold change vs veh, TFCP2 / RFU, GMCL1 /// GMCL1P1 / Fold change vs veh, GMCL1 /// GMCL1P1 / RFU, AEBP2 / Fold change vs veh, AEBP2 / RFU, SNHG1 /// SNORD22 /// SNORD25 /// SNORD26 /// SNORD27 /// SNORD28 /// SNORD29 /// SNORD31 / Fold change vs veh, SNHG1 /// SNORD22 /// SNORD25 /// SNORD26 /// SNORD27 /// SNORD28 /// SNORD29 /// SNORD31 / Fold change (Aza/veh), C12orf56 (ProbeSet 11735607_a_at) / Fold change (ACY-1035/veh), C12orf56 (ProbeSet 11735607_a_at) / Fold change (Aza/veh), FGFR1OP (ProbeSet 11751329_s_at) / Fold change (ACY-1035/veh), FGFR1OP (ProbeSet 11751329_s_at) / Fold change (Aza/veh), VPS36 (ProbeSet 11739960_a_at) / Fold change (ACY-1035/veh), VPS36 (ProbeSet 11739960_a_at) / RFU SYPL1 (11715823_x_at) / Fold change /veh SYPL1 (11715823_x_at) / RFU IGFBP7 (11715501_s_at) / Fold change /veh IGFBP7 (11715501_s_at) / RFU REEP3 (11722064_at) / Fold change /veh REEP3 (11722064_at) / RFU IGLL1 (11728026_x_at) / Fold change /veh IGLL1 (11728026_x_at): dose or concentration left out as unconfirmed
Details: ProbeSet 11733108_at; LIST D

SMILES: Nc1ncn([C@@H]2O[C@H](CO)[C@@H](O)[C@H]2O)c(=O)n1 [azacitidine]
- RFU, GNAQ: 233.19 RFU
